Measured values as given in publication PMC9521028, “Lengthening the Guanidine–Aryl Linker of Phenylpyrimidinylguanidines Increases Their Potency as Inhibitors of FOXO3-Induced Gene Transcription” (ACS Omega, 2022).
In brackets after ≈: the same amount, converted by molar mass. Entries after “also recorded” stand apart in the source; their conditions may differ.

Experiments:
[1] = Estimation of compound solubility in water (saturated solution, UV-vis); type: physicochemical; settings: for solubility at 48 h: aqueous buffer, thermodynamic from solid, 20 mM phosphate (pH 6.5) and 50 mM KCl buffer at 23 °C
Method: To estimate the solubility, we prepared saturated solutions of the compounds by adding 5 mg of each selected compound to 700 μL of 20 mM phosphate buffer (pH 6.5) containing 50 mM KCl. After 48 h of gentle agitation at room temperature (RT), the solutions were spun down, and the supernatant was filtered through 0.2 μm of SPARTAN 13/0.2 RC filter units (Merck KgaA, Darmstadt, Germany) and diluted 100–200× in the same phosphate buffer. The diluted solutions were transferred into the quartz cuvette, recording UV–vis absorption spectra in the range from 200 to 600 nm on a UV-1800 UV/visible scanning spectrophotometer (Shimadzu, Kyoto, Japan) at room temperature. The compound concentrations were estimated by the single point calibration using the absorption at wavelengths higher than 240 nm outside of DMSO absorption of 2000× diluted 50 mM DMSO-dissolved stock solution in phosphate buffer.

[2] = test system: FOXO3 binding to the promoter region of DEPP1 in SH-EP/FOXO3 cells; assay: DEPP1-luciferase reporter assay of FOXO3 transcriptional activity; type: cell-based; settings: for potency in blocking FOXO3 binding to the promoter region of DEPP1, compared with 5ca: initial screen, 50 μM compound; for inhibitory potency on target gene activation by FOXO3 (in words): summary of the reporter data, Figures 2, S2, S3; for potency in blocking FOXO3 binding to the promoter region of DEPP1: 25 and 12.5 μM compound; for efficiency of blocking FOXO3 binding to the promoter region of DEPP1: lower concentrations, down to 0.78 μM
Method: (§1) The ability of these compounds to inhibit FOXO3 transcriptional activity was further examined by assessing their effect on FOXO3 binding to the promoter region of decidual protein induced by progesterone 1 (DEPP1) after transfecting a DEPP1-luciferase reporter plasmid into SH-EP neuroblastoma cells stably expressing a 4-hydroxy-tamoxifen (4OHT)-regulated FOXO3(A3)ERtm transgene. […] In parallel, the toxicity of the compounds was tested by assessing their effect on endogenous DEPP1 and actin promoters in SH-EP cells.
Transcriptional activation of the DEPP1 promoter by conditional FOXO3 was assessed after transfection of a DEPP1-luciferase reporter plasmid pGS c10orf10 Prom wt (DEPP1-LUC)[20] into SH-EP/FOXO3 cells using the JetPrime reagent (Polyplus, Berkeley). After 24 h of transfection, mTFP fluorescent protein expression from a cotransfected expression vector was assessed by live cell fluorescence microscopy to verify equal transfection rates before seeding cells into 24-well plates. After 48 h of transfection, the cells were pretreated with indicated concentrations of each compound (30 min) before adding 100 nM 4-hydroxy-tamoxifen (4OHT) for 3 h to activate ectopic FOXO3. Firefly-luciferase was analyzed using the Luciferase Assay System (Promega, Madison). Luminescence intensity was measured in a Hidex Chameleon—Multilabel Microplate Reader (Hidex, Turku, Finland).

[3] = target: T1, recombinant DNA-binding domain of human FOXO3 (residues 156–269, FOXO3-DBD) (Homo sapiens, UniProt O43524); assay: Fluorescence polarization (FP) assay of FOXO3-DBD binding to FAM-labeled IRE dsDNA; settings: compound 1 μM; 125 nM FOXO3-DBD, 25 nM FAM-dsDNA
T1 construct: DNA encoding human FOXO3-DBD (residues 156–269); GST (N, cleaved yes); made in house; host or cells: E. coli BL21(DE3)
T1 sequence (O43524 156-269): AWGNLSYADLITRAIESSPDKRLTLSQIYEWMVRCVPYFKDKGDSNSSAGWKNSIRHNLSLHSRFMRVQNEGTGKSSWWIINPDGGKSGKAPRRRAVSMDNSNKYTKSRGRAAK
Description: The FOXO3 inhibition potency of the phenylpyrimidinylguanidine derivatives was first examined in a fluorescence polarization (FP) assay using the recombinant DNA-binding domain of human FOXO3 (residues 156–269, denoted as FOXO3-DBD) and FAM-labeled dsDNA containing the insulin-response element (IRE) consensus motif (Figure S1).
The final concentration of DMSO in all mixtures was adjusted to 5% (v/v). Positive (only assay buffer and FAM-labeled oligonucleotide) and negative (FOXO3-DBD and FAM-labeled oligonucleotide) controls were analyzed on each plate. Milli polarization values (mP) were measured at an excitation wavelength of 485 nm and an emission wavelength of 530 nm.

[4] = test system: FOXO3-induced apoptotic cell death in SH-EP/FOXO3 neuroblastoma cells; assay: Resazurin early cell death evaluation assay; type: cell-based; settings: for IC50: Neuroblastoma cell, 100 nM 4OHT, 24 h, approximate, toxicity prevented accurate determination, read-out: IC50, inhibition of FOXO3-induced cell death; for IC50 / concentration above which the compound is toxic (spontaneous cell death): SH-EP/FOXO3 cells; for fold lower IC50 than that of 5ca: resazurin assay, ratio to 5ca IC50 of ∼8 μM
Method: Moreover, we also attempted to determine the IC50 values of 5ci, 5cj, and 5db using a resazurin early cell death evaluation assay in cells expressing a conditional FOXO3 allele that triggers apoptotic cell death upon activation.
Neuroblastoma cells SH-EP/FOXO3 were seeded into 96-well plates and treated with concentrations 0.05, 0.1, 0.2, 0.39, 0.78, 1.56, 3.125, 6.25, 12.5, 18.75, and 25 μM of 5ca and its derivatives 30 min before activating ectopic FOXO3 by 100 nM 4OHT. For 5ca derivatives, concentrations above 3.125 μM had to be excluded from the analysis due to spontaneous cell death induction. Resazurin salt (Sigma-Aldrich s.r.o., St. Louis, Missouri) was diluted to a final concentration of 0.01% (wt/vol), and 20 μL of this dilution was added to 200 μL of the cell culture in each well 24 h after FOXO3 activation. Resazurin is reduced in viable cells to red-fluorescent resoflurin, which was quantified in a Hidex Chameleon—Multilabel Microplate Reader (Hidex, Turku, Finland) at filter settings 544 nm Ex/616 nm Em.

FOXO3 = test system: FOXO3; parameters: method as in PMID 31591479, PMID 31789593; settings: inhibit the transcriptional program of FOXO3; cited from earlier work
[5] = test system: endogenous DEPP1 and actin promoters in SH-EP cells; assay: Toxicity control: endogenous DEPP1 and actin promoter luciferase reporters; type: cell-based
Method: as §1
For this purpose, 2 × 10^6 SH-EP cells were transfected with either a DEPP1-LUC-reporter plasmid or an actin-LUC reporter plasmid using JetPrime reagent (Polyplus, Berkeley). Actin-LUC was constructed by inserting a 1.3 kb fragment of the chicken β actin promoter into pGL3-luc reporter vector (Promega, Madison). After 24 h of transfection, the cells were seeded into 24-well plates. After another 24 h, the cells were pretreated with indicated concentrations of compound for 3.5 h. Firefly-luciferase was analyzed using the Luciferase Assay System (Promega, Madison). Luminescence intensity was measured in a Hidex Chameleon—Multilabel Microplate Reader (Hidex, Turku, Finland).

| solubility at 48 h [1] [µM] | solubility in water (in words) [1] | Compound | potency in blocking FOXO3 binding to the promoter region of DEPP1, compared with 5ca [2] | inhibitory potency on target gene activation by FOXO3 (in words) [2] | potency in blocking FOXO3 binding to the promoter region of DEPP1 [2] | other results |
| --- | --- | --- | --- | --- | --- | --- |
| 100 (≈ 30.1 µg/mL) | – | CCCOc1ccc(NC(=N)Nc2nc(C)cc(O)n2)cc1 [5aa, 1-(4-Hydroxy-6-methylpyrimidin-2-yl)-3-(4-propoxyphenyl)guanidine] | – | – | – | – |
| 20000 (≈ 6400 µg/mL) | – | CCCOc1ccc(NC(=N)Nc2nc(C)cc(Cl)n2)cc1 [5ba, 1-(4-Chloro-6-methylpyrimidin-2-yl)-3-(4-propoxyphenyl)guanidine] | more potent than 5ca | – | – | – |
| 4000 (≈ 965 µg/mL) | insufficient solubility in water | Cc1cc(C)nc(NC(=N)Nc2ccccc2)n1 [5cb, 1-(4,6-Dimethylpyrimidin-2-yl)-3-phenylguanidine] | less potent FOXO3 inhibitors than 5ca | lower ability to inhibit FOXO3 | – | – |
| 7000 (≈ 1890 µg/mL) | improved solubility | Cc1ccc(CNC(=N)Nc2nc(C)cc(C)n2)cc1 [5cd, 1-(4,6-Dimethylpyrimidin-2-yl)-3-(4-methylbenzyl)guanidine] | – | did not increase the inhibitory potency | – | – |
| 4000 (≈ 1080 µg/mL) | – | Cc1cccc(CNC(=N)Nc2nc(C)cc(C)n2)c1 [5ce, 1-(4,6-Dimethylpyrimidin-2-yl)-3-(3-methylbenzyl)guanidine] | less potent FOXO3 inhibitors than 5ca | did not increase the inhibitory potency | – | – |
| 2000 (≈ 539 µg/mL) | – | Cc1cc(C)nc(NC(=N)NCc2ccccc2C)n1 [5cf, 1-(4,6-Dimethylpyrimidin-2-yl)-3-(2-methylbenzyl)guanidine] | – | did not increase the inhibitory potency | – | – |
| 200 (≈ 62.3 µg/mL) | limited the solubility | Cc1cc(C)nc(NC(=N)NCc2ccc(C(C)(C)C)cc2)n1 [5cg, 1-(4-(tert-Butyl)benzyl)-3-(4,6-dimethylpyrimidin-2-yl)guanidine] | more potent than 5ca | increased FOXO3 inhibition | the most potent compounds | – |
| 6000 (≈ 1640 µg/mL) | sufficient solubility in water | Cc1cc(C)nc(NC(=N)NCc2ccc(F)cc2)n1 [5ch, 1-(4,6-Dimethylpyrimidin-2-yl)-3-(4-fluorobenzyl)guanidine] | less potent FOXO3 inhibitors than 5ca | did not increase the inhibitory potency | – | – |
| 200 (≈ 78.1 µg/mL) | – | CCCOc1ccc(NC(=N)Nc2nc(C)cc(NCc3ccccc3)n2)cc1 [5da, 1-(4-(Benzylamino)-6-methylpyrimidin-2-yl)-3-(4-propoxyphenyl)guanidine] | more potent than 5ca | – | the most potent compounds | – |
| 1700 (≈ 606 µg/mL) | low solubility | CCCCNc1cc(C)nc(NC(=N)Nc2ccc(OCCC)cc2)n1 [5dc, 1-(4-(Butylamino)-6-methylpyrimidin-2-yl)-3-(4-propoxyphenyl)guanidine] | more potent than 5ca | slightly lower inhibitory efficacy than 5cj, 5ci, and 5db | the most potent compounds | – |
| – | – | CC1(C)[C@@H](OC(=O)CCC(=O)O)CC[C@]2(C)[C@H]3C(=O)C=C4[C@@H]5C[C@@](C)(C(=O)O)CC[C@]5(C)CC[C@@]4(C)[C@]3(C)CC[C@@H]12 [carbenoxolone] | – | – | – | concentration range of FOXO3 inhibition in cancer cells (FOXO3): low micromolar range |
| – | – | CCOc1cc(CC(=O)N[C@@H](CC(C)C)c2ccccc2N2CCCCC2)ccc1C(=O)O [repaglinide] | – | – | – | concentration range of FOXO3 inhibition in cancer cells (FOXO3): low micromolar range |

| Compound | solubility at 48 h [1] [µM] | solubility in water (in words) [1] | potency in blocking FOXO3 binding to the promoter region of DEPP1, compared with 5ca [2] | inhibitory potency on target gene activation by FOXO3 (in words) [2] | potency in blocking FOXO3 binding to the promoter region of DEPP1 [2] | other results |
| --- | --- | --- | --- | --- | --- | --- |
| CCCOc1ccc(NC(=N)Nc2nc(C)cc(C)n2)cc1 [5ca, 1-(4,6-Dimethylpyrimidin-2-yl)-3-(4-propoxyphenyl)guanidine] | 2000 (≈ 599 µg/mL) | – | – | – | – | reduction of FOXO3-DBD binding to FAM-IRE dsDNA [3]: approximately 20%; IC50 [4]: ~8000 nM; concentration above which the compound is toxic (spontaneous cell death) [4]: higher than 25 μM; concentration range of FOXO3 inhibition in cancer cells (FOXO3): low micromolar range |
| Cc1cc(C)nc(NC(=N)NCc2ccccc2)n1 [5cc, 1-Benzyl-3-(4,6-dimethylpyrimidin-2-yl)guanidine] | 10000 (≈ 2550 µg/mL) | significantly increased solubility in water | less potent FOXO3 inhibitors than 5ca | lower ability to inhibit FOXO3 | – | – |
| Cc1cc(C)nc(NC(=N)NCc2cccc3ccccc23)n1 [5ci, 1-(4,6-Dimethylpyrimidin-2-yl)-3-(naphthalen-1-ylmethyl)guanidine] | 700 (≈ 214 µg/mL) | low solubility | more potent than 5ca | increased FOXO3 inhibition | the most potent compounds | efficiency of blocking FOXO3 binding to the promoter region of DEPP1 [2]: more efficiently than 5cg, 5da, and 5dc; inhibition of FOXO3-mediated transcription ([2]; lowest concentration tested, 0.78 μM): significantly inhibited; effect on endogenous DEPP1 and actin promoters (toxicity markers) ([5]; 0.78 μM, SH-EP cells): without any effect; IC50 [4]: ~500 nM; concentration above which the compound is toxic (spontaneous cell death) [4]: higher than 4 μM; fold lower IC50 than that of 5ca [4]: 8–16 × |
| CCCOc1ccc(NC(=N)Nc2nc(C)cc(NCCc3ccccc3)n2)cc1 [5db, 1-(4-Methyl-6-(phenethylamino)pyrimidin-2-yl)-3-(4-propoxyphenyl)guanidine] | 300 (≈ 121 µg/mL) | low solubility; also recorded: very low solubility | more potent than 5ca | strongest inhibitor | the most potent compounds | efficiency of blocking FOXO3 binding to the promoter region of DEPP1 [2]: more efficiently than 5cg, 5da, and 5dc; toxicity compared with other derivatives ([5]; higher concentrations, Figure 2): more toxic than 5ci and 5cj at higher concentrations; IC50 [4]: ~500 nM; concentration above which the compound is toxic (spontaneous cell death) [4]: higher than 4 μM; fold lower IC50 than that of 5ca [4]: 8–16 × |
